Reference: ChEMBL document CHEMBL3526057 (Drug Metab Dispos, 2011)

Columns and labels:
Assay type in all cases: ADME
Settings in all cases: recombinant enzyme, 1 h
Cytochrome P450 2C19 [1] = target: T1, Cytochrome P450 2C19 (Homo sapiens, UniProt P33261); assay: Activity of human recombinant CYP2C19.8 mutant expressed in Saccharomyces cerevisiae BJ5457 assessed as omeprazole 5'-hydroxylation per pmol protein at 100 uM after 60 mins
Cytochrome P450 2C19 [2] = target: T2, Cytochrome P450 2C19 (Homo sapiens, UniProt P33261, P227L); assay: Activity of human recombinant CYP2C19.10 mutant expressed in Saccharomyces cerevisiae BJ5457 assessed as omeprazole 5'-hydroxylation per pmol protein at 100 uM after 60 mins
Cytochrome P450 2C19 [3] = target: T3, Cytochrome P450 2C19 (Homo sapiens, UniProt P33261, V331I/R442C); assay: Activity of human recombinant CYP2C19.16 mutant expressed in Saccharomyces cerevisiae BJ5457 assessed as omeprazole 5'-hydroxylation per pmol protein at 100 uM after 60 mins
Cytochrome P450 2C19 [4] = target: Cytochrome P450 2C19 (Homo sapiens, UniProt P33261, E92D); assay: Activity of human recombinant CYP2C19 E92D mutant expressed in Saccharomyces cerevisiae BJ5457 assessed as omeprazole 5'-hydroxylation per pmol protein at 100 uM after 60 mins
Cytochrome P450 2C19 [5] = target: T4, Cytochrome P450 2C19 (Homo sapiens, UniProt P33261, M74T); assay: Activity of human recombinant CYP2C19 M74T mutant expressed in Saccharomyces cerevisiae BJ5457 assessed as omeprazole 5'-hydroxylation per pmol protein at 100 uM after 60 mins
Cytochrome P450 2C19 [6] = target: T1, Cytochrome P450 2C19; assay: Activity of human recombinant CYP2C19.1B mutant expressed in Saccharomyces cerevisiae BJ5457 assessed asomeprazole 5'-hydroxylation after 60 mins
Cytochrome P450 2C19 [7] = target: T5, Cytochrome P450 2C19 (Homo sapiens, UniProt P33261, R144H); assay: Activity of human recombinant CYP2C19.9 mutant expressed in Saccharomyces cerevisiae BJ5457 assessed asomeprazole 5'-hydroxylation after 60 mins
Cytochrome P450 2C19 [8] = target: T3, Cytochrome P450 2C19; assay: Activity of human recombinant CYP2C19.16 mutant expressed in Saccharomyces cerevisiae BJ5457 assessed asomeprazole 5'-hydroxylation after 60 mins
Cytochrome P450 2C19 [9] = target: T6, Cytochrome P450 2C19 (Homo sapiens, UniProt P33261, D360N); assay: Activity of human recombinant CYP2C19 D360N mutant expressed in Saccharomyces cerevisiae BJ5457 assessed asomeprazole 5'-hydroxylation after 60 mins
Cytochrome P450 2C19 [10] = target: T4, Cytochrome P450 2C19; assay: Activity of human recombinant CYP2C19 M74T mutant expressed in Saccharomyces cerevisiae BJ5457 assessed asomeprazole 5'-hydroxylation after 60 mins
Cytochrome P450 2C19 [11] = target: T7, Cytochrome P450 2C19 (Homo sapiens, UniProt P33261, E122A); assay: Activity of human recombinant CYP2C19 E122A mutant expressed in Saccharomyces cerevisiae BJ5457 assessed asomeprazole 5'-hydroxylation after 60 mins
Cytochrome P450 2C19 [12] = target: T1, Cytochrome P450 2C19; assay: Activity of human recombinant CYP2C19.1A mutant expressed in Saccharomyces cerevisiae BJ5457 assessed asomeprazole 5'-hydroxylation per pmol protein after 60 mins
Cytochrome P450 2C19 [13] = target: T2, Cytochrome P450 2C19; assay: Activity of human recombinant CYP2C19.10 mutant expressed in Saccharomyces cerevisiae BJ5457 assessed asomeprazole 5'-hydroxylation per pmol protein after 60 mins
Cytochrome P450 2C19 [14] = target: T1, Cytochrome P450 2C19; assay: Activity of human recombinant CYP2C19.1A mutant expressed in Saccharomyces cerevisiae BJ5457 assessed as omeprazole 5'-hydroxylation per pmol protein at 5 uM after 60 mins
Cytochrome P450 2C19 [15] = target: T1, Cytochrome P450 2C19; assay: Activity of human recombinant CYP2C19.1B mutant expressed in Saccharomyces cerevisiae BJ5457 assessed as omeprazole 5'-hydroxylation per pmol protein at 5 uM after 60 mins
Cytochrome P450 2C19 [16] = target: T1, Cytochrome P450 2C19; assay: Activity of human recombinant CYP2C19.8 mutant expressed in Saccharomyces cerevisiae BJ5457 assessed as omeprazole 5'-hydroxylation per pmol protein at 5 uM after 60 mins
Cytochrome P450 2C19 [17] = target: T5, Cytochrome P450 2C19; assay: Activity of human recombinant CYP2C19.9 mutant expressed in Saccharomyces cerevisiae BJ5457 assessed as omeprazole 5'-hydroxylation per pmol protein at 5 uM after 60 mins
Cytochrome P450 2C19 [18] = target: T8, Cytochrome P450 2C19 (Homo sapiens, UniProt P33261, I19L); assay: Activity of human recombinant CYP2C19.15 mutant expressed in Saccharomyces cerevisiae BJ5457 assessed as omeprazole 5'-hydroxylation per pmol protein at 5 uM after 60 mins
Cytochrome P450 2C19 [19] = target: T3, Cytochrome P450 2C19; assay: Activity of human recombinant CYP2C19.16 mutant expressed in Saccharomyces cerevisiae BJ5457 assessed as omeprazole 5'-hydroxylation per pmol protein at 5 uM after 60 mins
Cytochrome P450 2C19 [20] = target: T9, Cytochrome P450 2C19 (Homo sapiens, UniProt P33261, W212C); assay: Activity of human recombinant CYP2C19 W212C mutant expressed in Saccharomyces cerevisiae BJ5457 assessed as omeprazole 5'-hydroxylation per pmol protein at 5 uM after 60 mins
Cytochrome P450 2C19 [21] = target: T8, Cytochrome P450 2C19; assay: Activity of human recombinant CYP2C19.15 mutant expressed in Saccharomyces cerevisiae BJ5457 assessed asomeprazole 5'-hydroxylation per pmol protein after 60 mins
Cytochrome P450 2C19 [22] = target: T3, Cytochrome P450 2C19; assay: Activity of human recombinant CYP2C19.16 mutant expressed in Saccharomyces cerevisiae BJ5457 assessed asomeprazole 5'-hydroxylation per pmol protein after 60 mins
Cytochrome P450 2C19 [23] = target: Cytochrome P450 2C19 (Homo sapiens, UniProt P33261, R329H); assay: Activity of human recombinant CYP2C19.18 mutant expressed in Saccharomyces cerevisiae BJ5457 assessed asomeprazole 5'-hydroxylation per pmol protein after 60 mins
Cytochrome P450 2C19 [24] = target: Cytochrome P450 2C19 (Homo sapiens, UniProt P33261, S51G); assay: Activity of human recombinant CYP2C19.19 mutant expressed in Saccharomyces cerevisiae BJ5457 assessed asomeprazole 5'-hydroxylation per pmol protein after 60 mins
Cytochrome P450 2C19 [25] = target: Cytochrome P450 2C19 (Homo sapiens, UniProt P33261, A161P); assay: Activity of human recombinant CYP2C19 A161P mutant expressed in Saccharomyces cerevisiae BJ5457 assessed asomeprazole 5'-hydroxylation per pmol protein after 60 mins
Cytochrome P450 2C19 [26] = target: T6, Cytochrome P450 2C19; assay: Activity of human recombinant CYP2C19 D360N mutant expressed in Saccharomyces cerevisiae BJ5457 assessed asomeprazole 5'-hydroxylation per pmol protein after 60 mins
Cytochrome P450 2C19 [27] = target: T9, Cytochrome P450 2C19; assay: Activity of human recombinant CYP2C19 W212C mutant expressed in Saccharomyces cerevisiae BJ5457 assessed asomeprazole 5'-hydroxylation per pmol protein after 60 mins
Cytochrome P450 2C19 [28] = target: T1, Cytochrome P450 2C19; assay: Activity of human recombinant CYP2C19.1B mutant expressed in Saccharomyces cerevisiae BJ5457 assessed as intrinisic clearance foromeprazole 5'-hydroxylation per pmol protein after 60 mins
Cytochrome P450 2C19 [29] = target: Cytochrome P450 2C19 (Homo sapiens, UniProt P33261, R410C); assay: Activity of human recombinant CYP2C19.13 mutant expressed in Saccharomyces cerevisiae BJ5457 assessed as intrinisic clearance foromeprazole 5'-hydroxylation per pmol protein after 60 mins
Cytochrome P450 2C19 [30] = target: T3, Cytochrome P450 2C19; assay: Activity of human recombinant CYP2C19.16 mutant expressed in Saccharomyces cerevisiae BJ5457 assessed as intrinisic clearance foromeprazole 5'-hydroxylation per pmol protein after 60 mins
Cytochrome P450 2C19 [31] = target: T7, Cytochrome P450 2C19; assay: Activity of human recombinant CYP2C19 E122A mutant expressed in Saccharomyces cerevisiae BJ5457 assessed as intrinisic clearance foromeprazole 5'-hydroxylation per pmol protein after 60 mins

COc1ccc2[nH]c([S+]([O-])Cc3ncc(C)c(OC)c3C)nc2c1 (stereo unspecified) [OMEPRAZOLE]
Drug metabolism (Cytochrome P450 2C19 [1]): 0.72 pmol/min | Drug metabolism (Cytochrome P450 2C19 [2]): 5 pmol/min | Drug metabolism (Cytochrome P450 2C19 [3]): 1.41 pmol/min | Drug metabolism (Cytochrome P450 2C19 [4]): 7.02 pmol/min | Drug metabolism (Cytochrome P450 2C19 [5]): 4.27 pmol/min | Km (Cytochrome P450 2C19 [6]): 4.16 µM | Km (Cytochrome P450 2C19 [7]): 10.1 µM | Km (Cytochrome P450 2C19 [8]): 4.17 µM | Km (Cytochrome P450 2C19 [9]): 7.81 µM | Km (Cytochrome P450 2C19 [10]): 3.62 µM | Km (Cytochrome P450 2C19 [11]): 12.3 µM | Vmax (Cytochrome P450 2C19 [12]): 7.97 pmol/min | Vmax (Cytochrome P450 2C19 [13]): 5.35 pmol/min | Drug metabolism (Cytochrome P450 2C19 [14]): 2.75 pmol/min | Drug metabolism (Cytochrome P450 2C19 [15]): 2.73 pmol/min | Drug metabolism (Cytochrome P450 2C19 [16]): metabolite_not_detected | Drug metabolism (Cytochrome P450 2C19 [17]): 1.95 pmol/min | Drug metabolism (Cytochrome P450 2C19 [18]): 3.41 pmol/min | Drug metabolism (Cytochrome P450 2C19 [19]): 0.65 pmol/min | Drug metabolism (Cytochrome P450 2C19 [20]): 0.58 pmol/min | Vmax (Cytochrome P450 2C19 [21]): 8.18 pmol/min | Vmax (Cytochrome P450 2C19 [22]): 1.68 pmol/min | Vmax (Cytochrome P450 2C19 [23]): 7.77 pmol/min | Vmax (Cytochrome P450 2C19 [24]): 9.59 pmol/min | Vmax (Cytochrome P450 2C19 [25]): 1.61 pmol/min | Vmax (Cytochrome P450 2C19 [26]): 4.11 pmol/min | Vmax (Cytochrome P450 2C19 [27]): 2.04 pmol/min | CL (Cytochrome P450 2C19 [28]): 1.24 µL/min | CL (Cytochrome P450 2C19 [29]): 1.54 µL/min | CL (Cytochrome P450 2C19 [30]): 0.41 µL/min | CL (Cytochrome P450 2C19 [31]): 0.4 µL/min
